What was measured:
[1] = system: HepG2 cells; assay: Measurement of cholesterol synthesis ability (Amplex red fluorescence); assay type: cell-based; conditions: for activity at 100 µM: Homo sapiens, HepG2 cells, 24 h treatment, lower is better, read-out: cholesterol synthesis ability, % control
Description: (§1) Metformin that is widely used in type 2 diabetic patients inhibits the formation of glucose, the synthesis of cholesterol and triglyceride in liver cells and promote the absorption of glucose from blood vessels in the muscle cells. […] In the case of the ability to form cholesterol, triglyceride and glucose, the lower the numerical value, the better the effect. Numerical values for a control group become reference values.
(§2) As a hepatic cell model, HepG2 cells were used to measure cholesterol synthesis inhibitory ability, which is the important function of AMPK. The hepatic cell model HepG2 cells were cultured in 1% serum-containing media for 24 hours, and then treated with each of the compounds for 24 hours. Then, the cells were disrupted with lysis buffer (0.1 M potassium phosphate, pH 7.4, 0.05 M NaCl, 5 mM cholic acid, 0.1% Triton X-100). To the disrupted cells, the same volume of a reaction solution (2 U/ml cholesterol oxidizing agent, 2 U/ml peroxidase, 0.2 U/ml cholesterol esterase, and 300 μM Amplex red as a fluorescent factor) was added and allowed to react at 37° C. for 30 minutes. After completion of the reaction, the cells were measured with a fluorometer at a wavelength of 560/590 nm (ex/em), thus quantifying the amount of […] formed in the cells. A lower measurement value means an increased lipid production inhibitory ability.

[2] = system: HepG2 cells; assay: Measurement of triglyceride (Amplex red fluorescence); assay type: cell-based; conditions: Homo sapiens, 100 uM, 24 h treatment, lower is better, read-out: triglyceride synthesis ability, % control
Procedure: as §1
as §2, with “model,” for “model, HepG2 cells were used to measure cholesterol synthesis inhibitory ability, which is the important function of AMPK. The hepatic cell model”, “(0.1M” for “(0.1 M”, “(0.76” for “(2”, “glycerol kinase, […] peroxidase, 22.2 U/ml glycerol” for “cholesterol”, “agent,” for “agent, 2 U/ml peroxidase, 0.2 U/ml cholesterol esterase,”

[3] = system: HepG2 cells; assay: Measurement of gluconeogenesis (14C-lactate); assay type: cell-based; conditions: Homo sapiens, 24 h treatment, lower is better, read-out: gluconeogenesis (glucose synthesis ability), % control
Procedure: as §1
As a hepatic cell model, HepG2 cells were cultured in 10% serum-containing high glucose media, and then treated with each of the compounds for 24 hours. Then, the cells were treated with 0.5 uCi 14C-lactate and 10 mM L-lactate, and cultured for 4 hours. After cultivation, the media of the cells were removed, and the cells were washed with PBS, treated with 0.1N NaOH and left to stand at room temperature for 1 hour. Then, the cells were neutralized with 1N HCl, and the amount of glucose formed in the cells was measured with a liquid scintillation counter. […] A lower measurement value means a stronger blood glucose lowering activity.

[4] = system: C2C12 cells; assay: Measurement of glucose absorption (3H-deoxy-glucose); assay type: cell-based; conditions: for activity at 200 µM / activity at 100 µM: Mus musculus, differentiated C2C12 muscle cells, with 1 μM insulin 24 h, higher is better, read-out: glucose absorption, % control
Description: as §1
As a muscle cell model, C2C12 cells were induced to differentiate into muscle cells in 2% bovine fetal serum for 6 days. The C2C12 cells which differentiated into muscle cells were treated with each of the compounds in serum-free low glucose media, and then cultured with 1 μM of insulin for 24 hours. After cultivation, the cells were treated with 1 μCi 3H-deoxy-glucose and 10 μM deoxy-glucose at 37° C. for 15 minutes. After treatment, the media were removed, and the cells were washed twice with PBS. The washed cells were treated with 0.1 N NaOH and neutralized with 1N HCl. The amount of glucose absorbed into the cells was measured with a liquid scintillation counter. The effect of the compounds was determined by selecting a compound showing an absorption effect of at least 200%, dividing the absorption effect by the average percent of the control group, and then multiplying the divided value by […]. A higher measurement value means a stronger ability to reduce insulin resistance.

Compound	activity at 100 µM [1] [%]	activity at 100 µM [2] [%]	activity at 200 µM [3] [%]	activity at 200 µM [4] [%]	melting point [°C]	activity at 100 µM [3] [%]	activity at 100 µM [4] [%]	effect on cholesterol synthesis, times better than the control group ([1]; by comparison of used amounts vs control group (metformin 2 mM))	effect of reducing insulin resistance, times better than the control group ([4]; absorption effect divided by average percent of control group (metformin 2 mM), multiplied by 20)
CN(C)c1nc(N)nc(NCc2ccoc2)n1 [Example 12, N2-(furan-3-ylmethyl)-N4,N4-dimethyl-1,3,5-triazine-2,4,6-triamine]	92.4	87.7	78.6	180	151.6 to 152	–	–	–	–
Nc1nc(N)nc(NCCc2ccccc2)n1 [Example 13, N2-phenethyl-1,3,5-triazine-2,4,6-triamine]	92.3	103	99.6	115	169.9 to 171.8	–	–	–	–
Cc1ccc(CNc2nc(N)nc(N(C)C)n2)cc1 [Example 14, N2,N2-dimethyl-N4-(4-methylbenzyl)-1,3,5-triazine-2,4,6-triamine]	87.8	92	–	–	139 to 143	75.4	113	–	–
COc1ccc(Nc2nc(N)nc(N(C)C)n2)cc1 [Example 15, N2,N2-dimethyl-N4-(4-methoxyphenyl)-1,3,5-triazine-2,4,6-triamine]	57.1	53.6	–	–	173 to 176	114	91.1	–	–
COc1cc(Nc2nc(N)nc(N(C)C)n2)cc(OC)c1 [Example 16, N2-(3,5-dimethoxyphenyl)-N4,N4-dimethyl-1,3,5-triazine-2,4,6-triamine]	66.9	79.5	–	–	148 to 150	87.6	63.2	–	–
CN(C)c1nc(N)nc(Nc2ccc(Br)cc2)n1 [Example 18, N2-(4-bromophenyl)-N4,N4-dimethyl-1,3,5-triazine-2,4,6-triamine]	66.4	44.6	–	–	105 to 108	67	91.5	–	–
COc1ccc(OC)c(Nc2nc(N)nc(N(C)C)n2)c1 [Example 19, N2-(2,5-dimethoxyphenyl)-N4,N4-dimethyl-1,3,5-triazine-2,4,6-triamine]	69.2	74.5	–	–	213 to 215	116	131	–	–
CN(C)c1nc(N)nc(Nc2ccc(Cl)cc2)n1 [Example 20, N2-(4-chlorophenyl)-N4,N4-dimethyl-1,3,5-triazine-2,4,6-triamine]	56.3	41.4	–	–	164 to 167	84.9	132	–	–
CC(Nc1nc(N)nc(N(C)C)n1)c1cccc2ccccc12 (centres unmarked) [Example 21, N2,N2-dimethyl-N4-(1-(naphthalen-1-yl)ethyl)-1,3,5-triazine-2,4,6-triamine]	56.6	71	–	–	73 to 76	42.1	140	–	–
CN(C)c1nc(N)nc(Nc2ccc3c(c2)CCC3)n1 [Example 23, N2-(2,3-dihydro-1H-inden-5-yl)-N4,N4-dimethyl-1,3,5-triazine-2,4,6-triamine]	63	37.2	–	–	245 to 255	10.7	1.91	–	–
CN(C)c1nc(N)nc(Nc2cc(Cl)cc(Cl)c2)n1 [Example 24, N2-(3,5-dichlorophenyl)-N4,N4-dimethyl-1,3,5-triazine-2,4,6-triamine]	55.8	41.7	–	–	240 to 264	49.9	136	–	–
CN(C)c1nc(N)nc(Nc2ccc3c(c2)-c2ccccc2C3)n1 [Example 25, N2-(9H-fluoren-3-yl)-N4,N4-dimethyl-1,3,5-triazine-2,4,6-triamine]	76.8	30.2	–	–	282 to 290	49.5	107	at least 20 times	–
CCCc1ccccc1Nc1nc(N)nc(N(C)C)n1 [Example 26, N2,N2-dimethyl-N4-(2-propylphenyl)-1,3,5-triazine-2,4,6-triamine]	62.9	38.6	–	–	130 to 145	24.7	170	–	–
CCCc1ccc(Nc2nc(N)nc(N(C)C)n2)cc1 [Example 27, N2,N2-dimethyl-N4-(4-propylphenyl)-1,3,5-triazine-2,4,6-triamine]	63.5	67.4	–	–	155 to 165	30.9	4.05	–	–
CCCCCCNc1nc(N)nc(N(C)C)n1 [Example 29, N2-hexyl-N4,N4-dimethyl-1,3,5-triazine-2,4,6-triamine]	63.5	41.2	–	–	142 to 149	16.3	94.5	–	–
CN(C)c1nc(N)nc(Nc2ccc(F)cc2)n1 [Example 31, N2-(4-fluorophenyl)-N4,N4-dimethyl-1,3,5-triazine-2,4,6-triamine]	67.2	69.8	–	–	182 to 199	80.7	131	–	–
Cc1cccc(Nc2nc(N)nc(N(C)C)n2)c1 [Example 32, N2,N2-dimethyl-N4-m-tolyl-1,3,5-triazine-2,4,6-triamine]	34.2	66.6	–	–	166 to 168	66.8	118	–	–
Cc1ccccc1Nc1nc(N)nc(N(C)C)n1 [Example 33, N2,N2-dimethyl-N4-o-tolyl-1,3,5-triazine-2,4,6-triamine]	65.8	91.9	–	–	122 to 143	95.6	148	–	–
CN(C)c1nc(N)nc(N2CCCCCC2)n1 [Example 34, 6-(azepan-1-yl)-N2,N2-dimethyl-1,3,5-triazine-2,4-diamine]	52.6	70.9	–	–	240 to 249	39.4	203	–	about 12 times
CN(C)c1nc(N)nc(Nc2ccc(-c3ccccc3)cc2)n1 [Example 37, N2-(biphenyl-4-yl)-N4,N4-dimethyl-1,3,5-triazine-2,4,6-triamine]	66.8	80.6	–	–	190 to 201	85.7	151	–	–
CN(C)c1nc(N)nc(Nc2ccccc2-c2ccccc2)n1 [Example 38, N2-(biphenyl-2-yl)-N4,N4-dimethyl-1,3,5-triazine-2,4,6-triamine]	55.1	63.3	–	–	196 to 216	13.8	92.1	–	–
